The values below come from paper PMC7830303, “Development of Antimicrobial Stapled Peptides Based on Magainin 2 Sequence” (Molecules, 2021).

Each structure is given as a SMILES string. In brackets after ≈: the same amount, converted by molar mass. Square brackets hold non-standard residues; d marks the D form. Peptide text beside a SMILES is read from it. Aib = CC(C)(N)C(=O)O

One data set relates to digestive enzymes. As to conditions: cited from earlier work. From the text:
Mag2 comprises cationic and hydrophobic amino acid residues and employs a helical structure […]. These properties are required for interaction with microbial membranes, and subsequent Mag2 insertions into membranes induce bacterial pore formation and ion efflux to exert their antimicrobial activity. The antimicrobial activity of AMPs targets the bacterial ...

For data set [1], the system named is multiple-drug resistant P. aeruginosa (MDRP). It counts as cell-based, Pseudomonas aeruginosa. Particulars: multiple-drug resistant (MDRP, 16 h). The procedure:
(§1) Selected bacterial strains were obtained from Biological Resource Center, NITE (NBRC; Tokyo, Japan). E. coli DH5α was purchased from BioDynamics Laboratory, Inc. (Tokyo, Japan). The antimicrobial activities of the peptides against the gram-positive S. aureus and gram-negative E. coli DH5α, P. aeruginosa, and MDRP were measured using standard broth microdilution method as previously described. Briefly, the bacteria were inoculated and grown overnight at 37 °C on agar media for other organisms i and then collected with liquid media for other organisms ii, according to Japanese Pharmacopoeia, 17th Edition. Each peptide was 2-fold serially diluted with an initial concentration of 500 μM to a final concentration of 1 μM using PBS. Then, 10 μL of the peptide solution was added to each well of a sterile 96-well plate. Subsequently, 90 μL of inoculation with 10^4 colony forming units (CFUs) per mL were added to each well, and the plate was incubated at 35 °C for 16 h.

Another data set has as its system Pseudomonas aeruginosa. In kind it is cell-based. Particulars: 16 h. The procedure: as §1
In the next data set the test system is Staphylococcus aureus. It counts as cell-based. As to conditions: 16 h. The procedure:
as §1

The subject of a further data set is Escherichia coli DH5α. It counts as cell-based. As to conditions: 16 h. The procedure: as §1

Turning to `CC[C@H](C)[C@H](NC(=O)CN)C(=O)N[C@@H](CCCCN)C(=O)N[C@@H](CCCCN)C(=O)N[C@@H](Cc1ccccc1)C(=O)N[C@@H](CC(C)C)C(=O)N[C@@H](CCCCN)C(=O)N[C@@H](CO)C(=O)NC(C)(C)C(=O)N[C@@H](CCCCN)C(=O)N[C@@H](CCCCN)C(=O)N[C@@H](Cc1ccccc1)C(=O)N[C@H](C(=O)N[C@@H](CCCCN)C(=O)NC(C)(C)C(=O)N[C@@H](Cc1ccccc1)C(=O)N[C@@H](CCCCN)C(N)=O)C(C)C` [Peptide 1, reference compound] (H-GIKKFLKS[Aib]KKFVK[Aib]FK-NH2), the “Resistance against digestive enzymes” value in the data set with digestive enzymes is “showed resistance against digestive enzymes”. The “MIC, Gram Negative, MDRP” value in data set [1] is recorded as 3.125 µM (≈ 6.24 µg/mL). Also, the “MIC, Gram Negative, P.a.” value with Pseudomonas aeruginosa is 3.125 µM (≈ 6.24 µg/mL). Also, the “MIC, Gram Positive, S.a.” value against Staphylococcus aureus amounted to 12.5 µM (≈ 24.9 µg/mL). Moreover, the “MIC, Gram Negative, E.c. (DH5α)” value in the data set on Escherichia coli DH5α came to 3.125 µM (≈ 6.24 µg/mL).
